Data on 13 compounds can be found in patent publication US10214542B2, “Modified macrocyclic compounds” (BAYER PHARMA AKTIENGESELLSCHAFT, priority 2015, dated 2019).

Molecules are shown by their SMILES.

The test system of one test is A2780 cells. The test is described as follows: Proliferation assay, Cell Titre-Glo viability (Method 3). Particulars: Homo sapiens, A2780, 72 h, A2780, 72-hour exposure; read-out: Inhibition of A2780 cell proliferation IC50. Type of test: cell-based, human. As to the method: (§1) A2780 human ovarian carcinoma cells (ECACC #93112519) and non-adherent MOLM-13 human acute myeloid leukemia cells (DSMZ ACC 554) were seeded at a density of 3,000 cell/well (A2780) or 5,000 cells/well (MOLM-13) in a 96-well multititer plate in 150 μL of growth medium supplemented 10% fetal calf serum. After 24 hours, cell viability of one plate (zero-point plate) was determined with the Cell Titre-Glo Luminescent Cell Viability Assay (Promega), while the medium of the other plates was supplemented with the test substances in various concentrations (0 μM, as well as in the range of 0.0001-10 μM; the final concentration of the solvent dimethyl sulfoxide was adjusted to 0.1%) using a Hewlett-Packard HP D300 Digital Dispenser. Cell viability was assessed after 72-hour exposure with the Cell
(§2) Titre-Glo Luminescent Cell Viability Assay (Promega). IC50 values (inhibitory concentration at 50% of maximal effect) were determined by means of a 4 parameter fit on measurement data which were normalized to vehicle (DMSO) treated cells (=100%) and measurement readings taken immediately before compound exposure (=0%).

In a further test the target is T1, CDK9/CycT1 (Homo sapiens, UniProt P50750).
T1 construct: Recombinant full-length His-tagged human CDK9 and CycT1; His; purchased Invitrogen PV4131; host or cells: insect cells
The test is described as follows: CDK9/CycT1 high ATP kinase assay (TR-FRET, Method 1b). Format: biochemical. The following applies: 2 mM ATP; for IC50: Method 1b; for Selectivity high ATP CDK9 over high ATP CDK2: IC50 (high ATP CDK2)/IC50 (high ATP CDK9): Methods 1b and 2b. As to the method:
1b. CDK9/CycT1 High ATP Kinase Assay
CDK9/CycT1-inhibitory activity of compounds of the present invention at a high ATP concentration after preincubation of enzyme and test compounds was quantified employing the CDK9/CycT1 TR-FRET assay as described in the following paragraphs.
Recombinant full-length His-tagged human CDK9 and CycT1, expressed in insect cells and purified by Ni-NTA affinity chromatography, were purchase from Invitrogen (Cat. No PV4131). As substrate for the kinase reaction biotinylated peptide biotin-Ttds-YISPLKSPYKISEG (C-terminus in amid form) was used which can be purchased e.g. from the company JERINI peptide technologies (Berlin, Germany).
For the assay 50 nl of a 100 fold concentrated solution of the test compound in DMSO was pipetted into a black low volume 384 well microtiter plate (Greiner Bio-One, Frickenhausen, Germany), 2 μl of a solution of CDK9/CycT1 in aqueous assay buffer [50 mM Tris/HCl pH 8.0, 10 mM MgCl2, 1.0 mM dithiothreitol, 0.1 mM sodium ortho-vanadate, 0.01% (v/v) Nonidet-P40 (Sigma)] were added and the mixture was incubated for 15 min at 22° C. to allow pre-binding of the test compounds to the enzyme before the start of the kinase reaction. […] The concentration of CDK9/CycT1 was adjusted depending of the activity of the enzyme lot and was chosen appropriate to have the assay in the linear range, typical concentrations were in the range of 0.5 μg/mL. The reaction was stopped by the addition of 5 μl of a solution of TR-FRET detection reagents (0.2 μM streptavidine-XL665 [Cisbio Bioassays, Codolet, France] and 1 nM anti-RB(pSer807/pSer811)-antibody from BD Pharmingen [#558389] and 1.2 nM LANCE EU-W1024 labeled anti-mouse IgG antibody [Perkin-Elmer, product no. AD0077]) in an aqueous EDTA-solution (100 mM EDTA, 0.2% (w/v) bovine serum albumin in 100 mM HEPES pH 7.5).
The resulting mixture was incubated 1 h at 22° C. to allow the formation of complex between the phosphorylated biotinylated peptide and the detection reagents. Subsequently the amount of phosphorylated substrate was evaluated by measurement of the resonance energy transfer from the Eu-chelate to the streptavidine-XL. Therefore, the fluorescence emissions at 620 nm and 665 nm after excitation at 350 nm was measured in a HTRF reader, e.g. a Rubystar (BMG Labtechnologies, Offenburg, Germany) or a Viewlux (Perkin-Elmer). The ratio of the emissions at 665 nm and at […] was taken as the measure for the amount of phosphorylated substrate. The data were normalised (enzyme reaction without inhibitor=0% inhibition, all other assay components but no enzym=100% inhibition).

For a further test, the system named is MOLM-13 cells. As to the kind of experiment: Proliferation assay, Cell Titre-Glo viability (Method 3). Type of test: cell-based. Particulars: Homo sapiens; MOLM-13, 72-hour exposure; read-out: Inhibition of MOLM-13 cell proliferation IC50. On the procedure:
as §1, §2

T1 sequence (P50750 whole entry): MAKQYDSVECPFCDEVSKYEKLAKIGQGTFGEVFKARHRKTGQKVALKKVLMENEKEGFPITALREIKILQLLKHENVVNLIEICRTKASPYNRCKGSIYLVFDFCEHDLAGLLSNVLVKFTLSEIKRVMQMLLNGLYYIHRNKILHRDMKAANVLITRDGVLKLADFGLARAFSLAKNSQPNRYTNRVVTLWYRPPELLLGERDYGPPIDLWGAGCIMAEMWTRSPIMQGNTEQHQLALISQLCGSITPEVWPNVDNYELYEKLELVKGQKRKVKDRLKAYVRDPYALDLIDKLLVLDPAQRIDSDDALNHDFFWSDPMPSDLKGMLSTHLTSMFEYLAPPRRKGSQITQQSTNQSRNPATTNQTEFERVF
T1 sequence (O60563 whole entry partner): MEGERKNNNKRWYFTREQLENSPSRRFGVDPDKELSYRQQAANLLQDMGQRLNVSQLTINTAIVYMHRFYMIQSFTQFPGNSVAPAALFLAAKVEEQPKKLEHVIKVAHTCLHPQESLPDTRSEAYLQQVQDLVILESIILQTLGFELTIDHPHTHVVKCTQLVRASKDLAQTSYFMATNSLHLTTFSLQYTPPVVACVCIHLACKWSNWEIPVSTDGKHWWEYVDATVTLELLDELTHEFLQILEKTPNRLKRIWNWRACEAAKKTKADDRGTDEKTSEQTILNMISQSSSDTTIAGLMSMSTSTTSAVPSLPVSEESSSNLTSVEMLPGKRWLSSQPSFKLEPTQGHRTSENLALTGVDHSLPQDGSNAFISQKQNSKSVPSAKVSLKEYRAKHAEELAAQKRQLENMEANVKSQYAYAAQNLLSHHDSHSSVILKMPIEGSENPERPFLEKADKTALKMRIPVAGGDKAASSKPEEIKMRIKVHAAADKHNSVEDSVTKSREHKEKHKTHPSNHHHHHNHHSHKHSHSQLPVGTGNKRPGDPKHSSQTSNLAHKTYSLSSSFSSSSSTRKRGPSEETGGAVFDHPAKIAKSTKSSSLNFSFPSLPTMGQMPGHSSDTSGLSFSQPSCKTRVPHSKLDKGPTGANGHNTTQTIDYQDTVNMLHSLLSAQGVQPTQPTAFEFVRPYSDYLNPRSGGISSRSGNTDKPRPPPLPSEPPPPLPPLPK

Regarding `CS(=O)(Cc1cc2nc(c1)Nc1cc(c(F)cn1)-c1ccc(F)cc1OCCCCN2)=NC(=O)OCc1ccccc1` (racemic) [Example 2, (rac)-Benzyl[{[16,20-difluoro-3,4,5,6-tetrahydro-2H,12H-11,7-(azeno)-13,17-(metheno)-1,6,12,14-benzoxatriazacyclononadecin-9-yl]methyl}(methyl)oxido-λ^6-sulfanylidene]carbamate], the IC50 with A2780 cells stood at 38 nM; against CDK9/CycT1, 12.7 nM; with MOLM-13 cells, 3 nM. For the same compound, the “Selectivity high ATP CDK9 over high ATP CDK2: IC50 (high ATP CDK2)/IC50 (high ATP CDK9)” value (from here on “Selectivity high ATP CDK9”) at CDK9/CycT1 worked out at 634.
For `CS(=N)(=O)Cc1cc2nc(c1)Nc1cc(c(F)cn1)-c1ccc(F)cc1OCCCCN2` (racemic) [Example 3, (rac)-16,20-Difluoro-9-[(S-methylsulfonimidoyl)methyl]-3,4,5,6-tetrahydro-2H,12H-11,7-(azeno)-13,17-(metheno)-1,6,12,14-benzoxatriazacyclononadecine] the same measures were 5.5 nM, 3.9 nM, 3.4 nM and 167.
For `C[S+]([O-])Cc1cc2nc(c1)OCCCCc1cc(F)ccc1-c1cc(ncc1F)N2` (racemic) [Example 5, (rac)-2,18-Difluoro-9-[(methylsulfinyl)methyl]-13,14,15,16-tetrahydro-6H-7,11-(azeno)-5,1-(metheno)-12,4,6-benzoxadiazacyclooctadecine] the same measures were 270 nM, 6 nM, 24 nM and 1375.
The like results for `CC(C)(C)OC(=O)N=S(C)(=O)Cc1cc2nc(c1)Nc1cc(c(F)cn1)-c1ccc(F)cc1OCCCN2` (racemic) [Example 7, (rac)-tert-butyl[{[15,19-difluoro-2,3,4,5-tetrahydro-11H-10,6-(azeno)-16,12-(metheno)-1,5,11,13-benzoxatriazacyclooctadecin-8-yl]methyl}(methyl)oxido-λ^6-sulfanylidene]carbamate] were, in that order, 7 nM, 1.9 nM, 6.8 nM and 32.1.
Regarding `CS(=N)(=O)Cc1cc2nc(c1)Nc1cc(c(F)cn1)-c1ccc(F)cc1OCCCN2` (racemic) [Example 8, (rac)-15,19-difluoro-8-[(S-methylsulfonimidoyl)methyl]-2,3,4,5-tetrahydro-11H-10,6-(azeno)-16,12-(metheno)-1,5,11,13-benzoxatriazacyclooctadecine], the IC50 in the test on A2780 cells came out at 1.4 nM; at CDK9/CycT1, 0.7 nM; in the test with MOLM-13 cells, 2.2 nM. Besides, at CDK9/CycT1, the “Selectivity high ATP CDK9” value amounted to 41.4.
For `CC(C)(C)OC(=O)N=S(C)(=O)Cc1cc2nc(c1)Nc1cc(c(F)cn1)-c1ccc(F)cc1OCCCCCN2` (racemic) [Example 9, (rac)-tert-butyl[{[17,21-difluoro-2,3,4,5,6,7-hexahydro-13H-12,8-(azeno)-14,18-(metheno)-1,7,13,15-benzoxatriazacycloicosin-10-yl]methyl}(methyl)oxido-λ^6-sulfanylidene]carbamate] the same measures were 27 nM, 6.8 nM, 19 nM and 37.2.
With `CS(=N)(=O)Cc1cc2nc(c1)Nc1cc(c(F)cn1)-c1ccc(F)cc1OCCCCCN2` (racemic) [Example 10, (rac)-17,21-difluoro-10-[(S-methylsulfonimidoyl)methyl]-2,3,4,5,6,7-hexahydro-13H-12,8-(azeno)-14,18-(metheno)-1,7,13,15-benzoxatriazacycloicosine], the results for the IC50 in the test with A2780 cells, against CDK9/CycT1 and with MOLM-13 cells were 5.2 nM, 1 nM and 4.4 nM, respectively. Also, the “Selectivity high ATP CDK9” value at CDK9/CycT1 is reported as 102.
The like results for `CN1CCCCOc2cc(F)ccc2-c2cc(ncc2F)Nc2cc(CS(C)(=N)=O)cc1n2` (racemic) [Example 11, (rac)-16,20-difluoro-6-methyl-9-[(S-methylsulfonimidoyl)methyl]-3,4,5,6-tetrahydro-2H-7,11-(azeno)-17,13-(metheno)-1,6,12,14-benzoxatriazacyclononadecine] were, in that order, 4.6 nM, 2.6 nM, 8.2 nM and 31.
For `CC(C)(C)OC(=O)N=S(C)(=O)Cc1cc2cc(c1)OCCCNc1cc(F)ccc1-c1nc(ncc1F)N2` (racemic) [Example 13, (rac)-tert-butyl[{[15,19-difluoro-1,2,3,4-tetrahydro-16,12-(azeno)-6,10-(metheno)-5,1,11,13-benzoxatriazacyclooctadecin-8(11H)-yl]methyl}(methyl)oxido-λ^6-sulfanylidene]carbamate] the same measures were 19 nM, 3 nM, 14 nM and 426.
As to `CS(=N)(=O)Cc1cc2cc(c1)OCCCNc1cc(F)ccc1-c1nc(ncc1F)N2` (racemic) [Example 14, rac-15,19-difluoro-8-[(S-methylsulfonimidoyl)methyl]-1,2,3,4-tetrahydro-16,12-(azeno)-6,10-(metheno)-5,1,11,13-benzoxatriazacyclooctadecine], the IC50 in the test with A2780 cells was determined as 4.7 nM; against CDK9/CycT1 it was 1 nM; with MOLM-13 cells, 3.1 nM. Besides, at CDK9/CycT1, the “Selectivity high ATP CDK9” value was 94.
Turning to `CC(C)(C)OC(=O)N=S(C)(=O)Cc1cc2cc(c1)Nc1ncc(F)c(n1)-c1ccc(F)cc1OCCCCN2` (racemic) [Example 24, (rac)-tert-butyl[{[16,20-difluoro-3,4,5,6-tetrahydro-2H,12H-13,17-(azeno)-11,7-(metheno)-1,6,12,14-benzoxatriazacyclononadecin-9-yl]methyl}(methyl)oxido-λ^6-sulfanylidene]carbamate], at CDK9/CycT1, the IC50 stood at 44 nM and the “Selectivity high ATP CDK9” value was above 454.
Regarding `CSCc1cc2nc(c1)OCCCCc1cc(F)ccc1-c1cc(ncc1F)N2` [Example 4, 2,18-Difluoro-9-[(methylsulfanyl)methyl]-13,14,15,16-tetrahydro-6H-7,11-(azeno)-5,1-(metheno)-12,4,6-benzoxadiazacyclooctadecine], at CDK9/CycT1, the IC50 stood at 323 nM and the “Selectivity high ATP CDK9” value is on record as above 61.9. Besides, the IC50 in the test on MOLM-13 cells turned out to be 970 nM.
`CSCc1cc2nc(c1)OCCCCCc1cc(F)ccc1-c1cc(ncc1F)N2` [Example 18, 2,19-difluoro-9-[(methylsulfanyl)methyl]-14,15,16,17-tetrahydro-6H,13H-7,11-(azeno)-5,1-(metheno)-12,4,6-benzoxadiazacyclononadecine]: in the test with A2780 cells, the IC50 was above 100 nM. Besides, on CDK9/CycT1, the IC50 is 246 nM and the “Selectivity high ATP CDK9” value was above 81.3.
